Experimental data reported in patent publication US6828144B2, “Method of observing vasculogenesis in vitro using cultured allantois” (Wisconsin Alumni Research Foundation, priority 1996, dated 2004).
Like-named read-outs stand apart in the source and are kept apart here.

Tested on: headfold-stage allantoic explants
Settings: for formation / retention of vascular channels in explants: 5% FCS, feeding at 24 hour intervals, by 72 hours
Description: At the onset of culture, or at varying times thereafter, known test compounds, such as Vascular Endothelial Growth Factor (VEGF, R & D Systems, Minneapolis, Minn.), are prepared according to the manufacturer's instructions and added to the cultures in concentrations recommended by the manufacturer (e.g., 1-20 ng VEGF/ml culture medium) or, in the case of unknown test compounds, in varying concentrations to determine the one that either inhibits or enhances vasculogenesis.
To test that possibility, recombinant VEGE (1-10 ng/ml culture medium) was added to explants at the start of culture in 5% FOS.
For survival and vascularization, allantoises were mouth-aspirated into a hand-pulled glass microcapillary (K. M. Downs and R. L. Gardner, supra, 1995; K. M. Downs, et al., supra, 1998) and either cultured in suspension as previously described (K. M. Downs, et al., supra, 1998) or placed individually (i) into wells of 24-well tissue-culture plates (Falcon 3047), (ii) onto glass cover slips (12 mm, Fisher) coated for 30 minutes in filtered (0.45 μm, cellulose acetate) poly-D-lysine (1 mg/ml double processed tissue culture water; Sigma) inserted into wells of 24-well tissue-culture plates and rinsed 34 times with sterile water, (iii) into sterile 8-well plastic chamber slides (Lab-Tek, Nunc), or (iv) into 8-well glass chamber slides some of which were coated in poly-D-lysine. Allantoises were cultured in 0.5 ml (24-well tissue-culture dishes or Falcon culture tubes (K. M. Downs and R. L. Gardner, supra, 1995) or 0.4 ml (8-well chamber slides) of culture medium (Dulbecco's modified Eagle's medium (DMEM) containing either equal parts of immediately-centrifuged and heat-inactivated rat serum as previously described (K. M. Downs and R. L. Gardner, supra, 1995) or 5, 10 and 20% heat-inactivated fetal calf serum (Gibco-BRL; frozen and thawed twice before using) for 24-72 hours at 37° C. in 6.2% CO2 in air. For culture longer than 24 hours, allantoises were given completely fresh medium at 24-hour intervals. In some experiments, erythrosin B (Fisher; 0.04% in phosphate-buffered saline (PBS); H. J. Phillips and J. E. Terryberry, Exp. Cell Res. 13:341-347, 1957) was diluted 1:1 in dissection medium to verify allantoic cell viability. Vascular Endothelial Growth Factor (R & D System,s Minneapolis, Minn.) was prepared according to the manufacturer's instructions and was added to culture medium containing 5% FCS in concentrations of 1-20 ng/ml.
To test that possibility, recombinant VEGF (1-10 ng/ml culture medium) was added to explants at the start of culture in 5% FCS.

## VEGF
VEGF 1 ng/ml
  formation / retention of vascular channels in explants: devoid of such channels
VEGF 2-10 ng/ml in 5% FCS, untreated explants in FCS alone 36%
  cell survival (cell retention): 78%
VEGF 2-10 ng/ml, added at start of culture
  formation / retention of vascular channels in explants: retention of Flk-1 containing vascular channels and overlying VCAM-1 positive cells
VEGF 2-10 ng/ml, added at start of culture, listed as Vascular Endothelial Growth Factor
  formation / retention of vascular channels in explants: formation of many vascular channels containing Flk-1 and Flt-1
Explants cultured in low serum
  survival of angioblasts and morphogenesis into vessels: promoted their survival and morphogenesis into vessels
